Results taken from patent publication US20250368649A1, “TETRAHYDROPYRIDOPYRIMIDINE PAN-KRAS INHIBITORS” (Mirati Therapeutics, Inc., priority 2022, published 2025).

Assays:
H460 cells = assay: Inhibition of KRas-mediated phosphorylation of ERK (Cisbio HTRF pERK), H460 cells; type: cell-based; conditions: Homo sapiens, NCI-H460, 3 h, 3 hr compound incubation
A549 cells = assay: Inhibition of KRas-mediated phosphorylation of ERK (Cisbio HTRF pERK), A549 cells; type: cell-based; conditions: Homo sapiens, A549, 3 h, 3 hr compound incubation
KRas G12R = KRas G12R (Homo sapiens, UniProt P01116, G12R); assay: biochemical; conditions: Binding to KRas (IC50 nM) G12R, TR-FRET displacement, KRas G12R
Chain of KRas G12R (P01116 1-169 isoform P01116-2 G12R): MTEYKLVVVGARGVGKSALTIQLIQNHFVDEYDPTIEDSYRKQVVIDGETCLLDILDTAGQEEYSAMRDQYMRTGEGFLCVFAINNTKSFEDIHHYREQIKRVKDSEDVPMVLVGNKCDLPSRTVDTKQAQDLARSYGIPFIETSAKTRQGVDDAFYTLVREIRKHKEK

H358 cells = assay: Inhibition of KRas-mediated phosphorylation of ERK (Cisbio HTRF pERK), H358 cells; type: cell-based; conditions: Homo sapiens, NCI-H358, 3 h, 3 hr compound incubation
PSN1 cells = assay: Inhibition of KRas-mediated phosphorylation of ERK (Cisbio HTRF pERK), PSN1 cells; type: cell-based; conditions: Homo sapiens, PSN1, 3 h
Method in brief: (§1)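 On the first day, plate 6,000 cells into each well in RPMI medium with 10% fetal bovine serum.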

H727 cells = assay: Inhibition of KRas-mediated phosphorylation of ERK (Cisbio HTRF pERK), H727 cells; type: cell-based; conditions: Homo sapiens, NCI-H727, 3 h, 3 hr compound incubation
MKN1 cells = assay: Inhibition of KRas-mediated phosphorylation of ERK (Cisbio HTRF pERK), MKN1 cells; type: cell-based; conditions: Homo sapiens
Method in brief: as §1

HCT116 cells = assay: Inhibition of KRas-mediated phosphorylation of ERK (Cisbio HTRF pERK), HCT116 cells; type: cell-based; conditions: Homo sapiens, HCT-116, 3 h, 3 hr compound incubation
KRas G12D = KRas G12D (Homo sapiens, UniProt P01116, G12D); assay: biochemical; conditions: Binding to KRas (IC50 nM) G12D, TR-FRET displacement, KRas G12D
Chain of KRas G12D (P01116 1-169 isoform P01116-2 G12D): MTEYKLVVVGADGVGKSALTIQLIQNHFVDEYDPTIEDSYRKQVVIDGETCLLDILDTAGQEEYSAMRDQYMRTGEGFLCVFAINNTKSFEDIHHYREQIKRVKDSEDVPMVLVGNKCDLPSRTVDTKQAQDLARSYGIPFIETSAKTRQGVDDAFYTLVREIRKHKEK

KRas G12V = KRas G12V (Homo sapiens, UniProt P01116, G12V); assay: biochemical; conditions: Binding to KRas (IC50 nM) G12V, TR-FRET displacement, KRas G12V
Chain of KRas G12V (P01116 1-169 isoform P01116-2 G12V): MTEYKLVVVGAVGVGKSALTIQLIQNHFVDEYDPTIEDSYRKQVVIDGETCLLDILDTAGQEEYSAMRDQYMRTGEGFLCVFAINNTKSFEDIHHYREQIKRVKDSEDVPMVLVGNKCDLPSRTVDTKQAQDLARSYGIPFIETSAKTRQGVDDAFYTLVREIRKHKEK

ASPC1 cells = assay: Inhibition of KRas-mediated phosphorylation of ERK (Cisbio HTRF pERK), ASPC1 cells; type: cell-based; conditions: Homo sapiens, ASPC1, 3 h, AsPC-1 cells, 3 hr compound incubation
[1] = 3 hour compound incubation, Cisbio pERK HTRF
[2] = MKN-1, 3 hour compound incubation, Cisbio pERK HTRF
[3] = MKN-1, 3 hr compound incubation

IC50 (H460 cells; Cisbio pERK HTRF)	IC50 (A549 cells; Cisbio pERK HTRF)	IC50 (KRas G12R)	IC50 (H358 cells; Cisbio pERK HTRF)	IC50 (PSN1 cells; [1])	IC50 (H727 cells; Cisbio pERK HTRF)	IC50 (MKN1 cells; [2])	IC50 (HCT116 cells; Cisbio pERK HTRF)	IC50 (KRas G12D)	IC50 (KRas G12V)	IC50 (ASPC1 cells; Cisbio pERK HTRF)	IC50 (H460 cells)	IC50 (A549 cells)	IC50 (H358 cells)	IC50 (PSN1 cells; 3 hr compound incubation)	IC50 (H727 cells)	IC50 (MKN1 cells; [3])	IC50 (HCT116 cells)	IC50 (ASPC1 cells)	SMILES
1210 nM	> 10000 nM	7 nM	808 nM	605 nM	6290 nM	1120 nM	3290 nM	33 nM	25 nM	4980 nM	–	–	–	–	–	–	–	–	CCc1c(F)ccc2cc(O)cc(N3CCc4c(nc(OCC5(CN(C)C)CC5)nc4N4CCCC(n5ccc(C)n5)C4)C3)c12 (stereo not drawn) [Example 600, 4-(2-((1-((dimethylamino)methyl)cyclopropyl)methoxy)-4-(3-(3-methyl-1H-pyrazol-1-yl)piperidin-1-yl)-5,8-dihydropyrido[3,4-d]pyrimidin-7(6H)-yl)-5-ethyl-6-fluoronaphthalen-2-ol]
3410 nM	722 nM	< 2 nM	229 nM	> 10000 nM	1220 nM	953 nM	3580 nM	< 2 nM	< 2 nM	161 nM	–	–	–	–	–	–	–	–	CCc1c(F)ccc2cc(O)cc(N3CCc4c(nc(OC[C@@]56CCCN5C[C@H](F)C6)nc4N4CCCn5nc(C(=O)N6CC7CNC(CO)C7C6)cc5C4)C3)c12 (stereo partly drawn) [Example 607, (5-(7-(8-ethyl-7-fluoro-3-hydroxynaphthalen-1-yl)-2-(((2R,7aS)-2-fluorotetrahydro-1H-pyrrolizin-7a(5H)-yl)methoxy)-5,6,7,8-tetrahydropyrido[3,4-d]pyrimidin-4-yl)-5,6,7,8-tetrahydro-4H-pyrazolo[1,5-a][1,4]diazepin-2-yl)(4-(hydroxymethyl)hexahydropyrrolo[3,4-c]pyrrol-2(1H)-yl)methanone]
353 nM	215 nM	< 2 nM	42 nM	> 10000 nM	274 nM	49.7 nM	544 nM	< 2 nM	< 2 nM	46 nM	–	–	–	–	–	–	–	–	CCc1c(F)ccc2cc(O)cc(N3CCc4c(nc(OC[C@@]56CCCN5C[C@H](F)C6)nc4N4CCCn5nc(C(=O)N6CCNC7CC6C7)cc5C4)C3)c12 [Example 608, (2,5-diazabicyclo[4.1.1]octan-2-yl)(5-(7-(8-ethyl-7-fluoro-3-hydroxynaphthalen-1-yl)-2-(((2R,7aS)-2-fluorotetrahydro-1H-pyrrolizin-7a(5H)-yl)methoxy)-5,6,7,8-tetrahydropyrido[3,4-d]pyrimidin-4-yl)-5,6,7,8-tetrahydro-4H-pyrazolo[1,5-a][1,4]diazepin-2-yl)methanone]
–	–	< 2 nM	–	–	–	–	–	< 2 nM	< 2 nM	–	40 nM	3 nM	4 nM	4070 nM	10 nM	5.5 nM	123 nM	4 nM	CCc1c(F)ccc2cc(O)cc(N3CCc4c(nc(OC[C@@]56CCCN5C[C@H](F)C6)nc4N4CCCn5nc(C(=O)N6CC[C@H]7C[C@H]76)cc5C4)C3)c12 [Example 614, ((1R,5S)-2-azabicyclo[3.1.0]hexan-2-yl)(5-(7-(8-ethyl-7-fluoro-3-hydroxynaphthalen-1-yl)-2-(((2R,7aS)-2-fluorotetrahydro-1H-pyrrolizin-7a(5H)-yl)methoxy)-5,6,7,8-tetrahydropyrido[3,4-d]pyrimidin-4-yl)-5,6,7,8-tetrahydro-4H-pyrazolo[1,5-a][1,4]diazepin-2-yl)methanone]
–	–	2 nM	–	–	–	–	–	3 nM	< 2 nM	–	41 nM	15 nM	6 nM	4640 nM	4 nM	34.6 nM	144 nM	7 nM	CCc1c(F)ccc2cc(O)cc(N3CCc4c(nc(OC[C@@]56CCCN5C[C@H](F)C6)nc4N4CCCn5nc(C(=O)N6C[C@@H]7CCC[C@H]6C7)cc5C4)C3)c12 [Example 615, ((1R,5S)-6-azabicyclo[3.2.1]octan-6-yl)(5-(7-(8-ethyl-7-fluoro-3-hydroxynaphthalen-1-yl)-2-(((2R,7aS)-2-fluorotetrahydro-1H-pyrrolizin-7a(5H)-yl)methoxy)-5,6,7,8-tetrahydropyrido[3,4-d]pyrimidin-4-yl)-5,6,7,8-tetrahydro-4H-pyrazolo[1,5-a][1,4]diazepin-2-yl)methanone]
–	–	3 nM	–	–	–	–	–	4 nM	< 2 nM	–	48 nM	24 nM	11 nM	> 10000 nM	17 nM	62.9 nM	176 nM	17 nM	CCc1c(F)ccc2cc(O)cc(N3CCc4c(nc(OC[C@@]56CCCN5C[C@H](F)C6)nc4N4CCCn5nc(C(=O)N6C[C@H]7CCC[C@@H]6C7)cc5C4)C3)c12 [Example 616, ((1S,5R)-6-azabicyclo[3.2.1]octan-6-yl)(5-(7-(8-ethyl-7-fluoro-3-hydroxynaphthalen-1-yl)-2-(((2R,7aS)-2-fluorotetrahydro-1H-pyrrolizin-7a(5H)-yl)methoxy)-5,6,7,8-tetrahydropyrido[3,4-d]pyrimidin-4-yl)-5,6,7,8-tetrahydro-4H-pyrazolo[1,5-a][1,4]diazepin-2-yl)methanone]
–	–	< 2 nM	–	–	–	–	–	< 2 nM	< 2 nM	–	34 nM	10 nM	1 nM	1420 nM	7 nM	1.9 nM	69 nM	5 nM	CCc1c(F)ccc2cc(O)cc(N3CCc4c(nc(OC[C@@]56CCCN5C[C@H](F)C6)nc4N4CCCn5nc(C(=O)N6C[C@H]7CO[C@H](C7)C6)cc5C4)C3)c12 [Example 619, ((1S,5R)-6-oxa-3-azabicyclo[3.2.1]octan-3-yl)(5-(7-(8-ethyl-7-fluoro-^3-hydroxynaphthalen-1-yl)-2-(((2R,7aS)-2-fluorotetrahydro-1H-pyrrolizin-7a(5H)-yl)methoxy)-5,6,7,8-tetrahydropyrido[3,4-d]pyrimidin-4-yl)-5,6,7,8-tetrahydro-4H-pyrazolo[1,5-a][1,4]diazepin-2-yl)methanone]
–	–	< 2 nM	–	–	–	–	–	< 2 nM	< 2 nM	–	30 nM	24 nM	2 nM	2670 nM	7 nM	3.7 nM	111 nM	6 nM	CCc1c(F)ccc2cc(O)cc(N3CCc4c(nc(OC[C@@]56CCCN5C[C@H](F)C6)nc4N4CCCn5nc(C(=O)N6C[C@@H]7CO[C@@H](C7)C6)cc5C4)C3)c12 [Example 620, ((1R,5S)-6-oxa-3-azabicyclo[3.2.1]octan-3-yl)(5-(7-(8-ethyl-7-fluoro-3-hydroxynaphthalen-1-yl)-2-(((2R,7aS)-2-fluorotetrahydro-1H-pyrrolizin-7a(5H)-yl)methoxy)-5,6,7,8-tetrahydropyrido[3,4-d]pyrimidin-4-yl)-5,6,7,8-tetrahydro-4H-pyrazolo[1,5-a][1,4]diazepin-2-yl)methanone]
–	–	< 2 nM	–	–	–	–	–	< 2 nM	< 2 nM	–	12 nM	5 nM	1 nM	1420 nM	2 nM	1.6 nM	31 nM	1 nM	CCc1c(F)ccc2cc(O)cc(N3CCc4c(nc(OC[C@@]56CCCN5C[C@H](F)C6)nc4N4CCCn5nc(C(=O)N6CC[C@H]7C[C@@H]6CO7)cc5C4)C3)c12 [Example 623, ((1R,5S)-6-oxa-2-azabicyclo[3.2.1]octan-2-yl)(5-(7-(8-ethyl-7-fluoro-3-hydroxynaphthalen-1-yl)-2-(((2R,7aS)-2-fluorotetrahydro-1H-pyrrolizin-7a(5H)-yl)methoxy)-5,6,7,8-tetrahydropyrido[3,4-d]pyrimidin-4-yl)-5,6,7,8-tetrahydro-4H-pyrazolo[1,5-a][1,4]diazepin-2-yl)methanone]
